Measurements as given in ChEMBL document CHEMBL4828731, “Synthesis, structure-activity relationships and molecular docking studies of phenyldiazenyl sulfonamides as aromatase inhibitors” (Eur J Med Chem, 2021).
One block for each compound: values may come before it. Calls of active or inactive are those of the source. The calls are words filed in the database; no cut-off is given here.

Assays:
HFF-1 [1] = assay: Cytotoxicity against human HFF-1 clls assessed as reduction in cell viability at 10 to 100 uM measured after 72 hrs by MTT assay; assay type: cell-based; conditions: hff-1, 72 h, dose 10-100 µM
MCF7 [2] = assay: Cytotoxicity against human MCF7 cells assessed as reduction in cell metabolic activity at 250 uM incubated for 72 hrs by MTT assay relative to control; assay type: functional; set-up: scale not given: the % may be the effect or the level left
[3] = Selectivity index, ratio of IC50 for cytotoxicity against human HFF-1 cells to IC50 for cytotoxicity against human MCF7 cells measured after 24 hrs by MTT assay; assay type: toxicity, cell-based; conditions: HFF-1 cells and MCF7 cells, read-out: Selectivity Index
Aromatase [4] = target: T1, Aromatase (Homo sapiens, UniProt P11511); assay: Inhibition of human aromatase assessed as reduction in fluorescence intensity using 7-methoxy-4-trifluoromethyl coumarin as a substrate by fluorimetric assay
T1 sequence (P11511 whole entry): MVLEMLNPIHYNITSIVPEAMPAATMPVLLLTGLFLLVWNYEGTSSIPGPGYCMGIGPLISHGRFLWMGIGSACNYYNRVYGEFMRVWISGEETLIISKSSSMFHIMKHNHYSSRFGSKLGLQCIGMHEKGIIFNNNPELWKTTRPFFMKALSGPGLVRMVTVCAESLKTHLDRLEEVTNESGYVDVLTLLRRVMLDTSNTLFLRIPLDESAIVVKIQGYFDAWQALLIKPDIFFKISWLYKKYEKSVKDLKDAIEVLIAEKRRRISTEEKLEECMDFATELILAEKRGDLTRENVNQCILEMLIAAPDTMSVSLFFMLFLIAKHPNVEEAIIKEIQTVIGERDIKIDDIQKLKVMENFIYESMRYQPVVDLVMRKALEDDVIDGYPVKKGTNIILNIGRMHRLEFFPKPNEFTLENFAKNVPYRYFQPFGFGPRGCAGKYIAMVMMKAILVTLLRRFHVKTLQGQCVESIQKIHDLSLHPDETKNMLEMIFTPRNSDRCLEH

MCF7 [5] = assay: Cytotoxicity against human MCF7 cells assessed as reduction in cell metabolic activity up to 50 uM incubated for 48 hrs by MTT assay relative to control; assay type: functional; set-up: scale not given: the % may be the effect or the level left; conditions: dose microM <=50
Aromatase [6] = target: T1, Aromatase; assay: Potency index, ratio of resveratrol IC50 to test compound IC50 for Inhibition of human aromatase assessed as reduction in fluorescence intensity using 7-methoxy-4-trifluoromethyl coumarin as a substrate by fluorimetric assay
MCF7 [7] = assay: Cytotoxicity against human MCF7 cells assessed as reduction in cell metabolic activity up to 50 uM incubated for 24 hrs by MTT assay relative to control; assay type: functional; set-up: scale not given: the % may be the effect or the level left; conditions: dose microM <=50
MCF7 [8] = assay: Cytotoxicity against human MCF7 cells assessed as release of LDH up to 250 uM measured after 24 hrs by lactate dehydrogenase assay; assay type: functional, cell-based; conditions: dose microM <=250, time 24.0 hrs
Aromatase [9] = target: T1, Aromatase; assay: Inhibition of human aromatase assessed as reduction in fluorescence intensity using 7-methoxy-4-trifluoromethyl coumarin as a substrate at 1 uM by fluorimetric assay relative to control
Aromatase [10] = target: T1, Aromatase; assay: Inhibition of human aromatase in T47D measured after 24 hrs by ELISA
MCF7 [11] = assay: Cytotoxicity against human MCF7 cells assessed as reduction in cell metabolic activity incubated for 72 hrs by MTT assay; assay type: functional, cell-based
MCF7 [12] = assay: Cell cycle arrest in human MCF7 cells assessed as increase in cells in G1 phase measured after 72 hrs by propidium iodide staining based flow cytometry analysis; assay type: functional
[13] = Selectivity index, ratio of IC50 for cytotoxicity against human HFF-1 cells to IC50 for cytotoxicity against human MCF7 cells measured after 48 hrs by MTT assay; assay type: toxicity, cell-based; conditions: HFF-1 cells and MCF7 cells, read-out: Selectivity Index
MCF7 [14] = assay: Cytotoxicity against human MCF7 cells assessed as reduction in cell metabolic activity at 100 uM incubated for 24 hrs by MTT assay relative to control; assay type: functional; set-up: scale not given: the % may be the effect or the level left
MCF7 [15] = assay: Cytotoxicity against human MCF7 cells assessed as fold increase in release of LDH at 50 uM measured after 24 hrs by lactate dehydrogenase assay relative to control; assay type: functional
MCF7 [16] = assay: Induction of apoptosis in human MCF7 cells assessed as increase in necrotic cells at 10 to 250 uM measured after 24 hrs by Annexin V-APC/PI staining based flow cytometry analysis relative to control; assay type: functional, cell-based; conditions: dose 10-250 µM
MCF7 [17] = assay: Induction of apoptosis in human MCF7 cells assessed as cells in apoptotic stage at 250 uM measured after 24 hrs by Annexin V-APC/PI staining based flow cytometry analysis (Rvb= 7.3%); assay type: functional
MCF7 [18] = assay: Induction of apoptosis in human MCF7 cells assessed as cells in apoptotic stage at 100 uM measured after 24 hrs by Annexin V-APC/PI staining based flow cytometry analysis (Rvb= 7.3%); assay type: functional
HFF-1 [19] = assay: Cytotoxicity against human HFF-1 clls assessed as reduction in cell viability at 250 uM measured after 72 hrs by MTT assay; assay type: cell-based; conditions: hff-1, 72 h
MCF7 [20] = assay: Cell cycle arrest in human MCF7 cells assessed as reduction in cells in S phase measured after 72 hrs by propidium iodide staining based flow cytometry analysis; assay type: functional
[21] = Selectivity index, ratio of IC50 for cytotoxicity against human HFF-1 cells to IC50 for cytotoxicity against human MCF7 cells measured after 72 hrs by MTT assay; assay type: toxicity, cell-based; conditions: HFF-1 cells and MCF7 cells, read-out: Selectivity Index

IC50 (Aromatase [4]): 5.7 µM
inhibition at 1 µM (Aromatase [9]): 50%
Compound: COc1ccc(S(=O)(=O)N(Cc2nc3ccccc3[nH]2)c2ccc(/N=N/c3ccccc3)cc2)c(OC)c1
Activity (HFF-1 [1]): Non-Toxic
Activity (MCF7 [2]): 134.2%
selectivity ratio at 24 h [3]: > 2.25
Activity (MCF7 [5]): 60%
Ratio IC50 (Aromatase [6]): 14
Activity (MCF7 [7]): 20%
Activity (MCF7 [8]): inactive

inhibition at 1 µM (Aromatase [9]): < 20%
Compound: O=[N+]([O-])c1cccc(S(=O)(=O)Nc2ccc(/N=N/c3ccccc3)cc2)c1

inhibition at 1 µM (Aromatase [9]): < 20%
Compound: Cc1ccc(S(=O)(=O)N(Cc2nc3ccccc3[nH]2)c2ccc(/N=N/c3ccccc3)cc2)cc1[N+](=O)[O-]

inhibition at 1 µM (Aromatase [9]): < 20%
Compound: Cc1ccc(S(=O)(=O)Nc2ccc(/N=N/c3ccccc3)cc2)cc1[N+](=O)[O-]

inhibition at 1 µM (Aromatase [9]): < 20%
Compound: O=S(=O)(c1ccccc1)N(Cc1nc2ccccc2[nH]1)c1ccc(/N=N/c2ccccc2)cc1

The next lines start with the compound.

Compound: CC(=O)Nc1ccc(S(=O)(=O)Nc2ccc(/N=N/c3ccccc3)cc2)cc1
inhibition at 1 µM (Aromatase [9]): < 20%

Compound: O=S(=O)(Cc1ccccc1)Nc1ccc(/N=N/c2ccccc2)cc1
inhibition at 1 µM (Aromatase [9]): < 20%

Compound: N#Cc1ccc(S(=O)(=O)Nc2ccc(/N=N/c3ccccc3)cc2)c(Cl)c1
inhibition at 1 µM (Aromatase [9]): < 20%

Compound: COc1cnc(NS(=O)(=O)c2ccc(N/C=C\C(=O)c3cc4ccccc4oc3=O)cc2)nc1
IC50 (Aromatase [10]): 6 µM

Compound: N#Cc1ccc(S(=O)(=O)Nc2ccc(/N=N/c3ccccc3)cc2)cc1
Activity (HFF-1 [1]): Non-Toxic
selectivity ratio at 24 h [3]: > 1.6
Activity (MCF7 [11]): Dose-Dependent Effect
IC50 (Aromatase [4]): 7.9 µM
Activity (MCF7 [5]): 60%
Activity (MCF7 [7]): 20%
Activity (MCF7 [8]): inactive

Compound: CCS(=O)(=O)Nc1ccc(/N=N/c2ccccc2)cc1
inhibition at 1 µM (Aromatase [9]): < 20%

Compound: COc1ccc(S(=O)(=O)Nc2ccc(/N=N/c3ccccc3)cc2)c(OC)c1
Activity (HFF-1 [1]): Non-Toxic
selectivity ratio at 24 h [3]: 2.12
Activity (MCF7 [12]): Dose-Dependent Effect
Activity (MCF7 [11]): Dose-Dependent Effect
selectivity ratio at 48 h [13]: 3.19
Activity (MCF7 [14]): 47.4%
fold change (FC) (MCF7 [15]): 2.5
IC50 (Aromatase [4]): 1.6 µM
Activity (MCF7 [16]): Active
Activity (MCF7 [5]): 60%
Ratio IC50 (Aromatase [6]): 50
Activity (MCF7 [7]): 20%
Activity (MCF7 [17]): 14.7%
Activity (MCF7 [18]): 19.7%
Activity (HFF-1 [19]): Toxic
Activity (MCF7 [20]): Dose-Dependent Effect
selectivity ratio at 72 h [21]: 3.74

Compound: Oc1ccc(/C=C/c2cc(O)cc(O)c2)cc1 [RESVERATROL]
Activity (MCF7 [11]): Dose-Dependent Effect
Activity (MCF7 [14]): 78.2%
Activity (MCF7 [8]): inactive

Compound: O=S(=O)(Nc1ccc(/N=N/c2ccccc2)cc1)c1ccc(Cl)s1
inhibition at 1 µM (Aromatase [9]): < 20%

Compound: CS(=O)(=O)Nc1ccc(/N=N/c2ccccc2)cc1
inhibition at 1 µM (Aromatase [9]): < 20%

Compound: O=S(=O)(Nc1ccc(/N=N/c2ccccc2)cc1)c1ccccc1
inhibition at 1 µM (Aromatase [9]): < 20%
